By EC50 is commonly meant the midpoint of the concentration-response curve.

Read-outs that look alike come from different tables or passages of the source. Bounds are passed on as bounds.

The test system of test [1] is hMPV-GFP virus. Put plainly: microbe, parasite or virus in culture. The format is cell-based, human metapneumovirus. As for the experimental part: GFP expressing rgHMPV #3 p3 was generated in Dr. Buchholz's lab (Biacchesi S. et al., J Virol. 2007 June; 81(11): 6057-6067) and propagated in VERO cells (ATCC Cat #CCL-81) with a Multiplicity of Infection (MOI) of 0.1. Virus was harvested 4 days after infection by collecting cultured material and was freeze-thaw cycled in liquid nitrogen twice. Working virus stocks were generated from thawing frozen samples in 37° C. water bath, which were centrifuged at 218 g for 15 min at 4° C. 1/10 of 10×SPG (Biological Industries 06-3061-01-5A) were added and then mixed. The supernatant was aliquoted, frozen in liquid nitrogen, and then transferred to a −80° C. freezer for storage. Virus titer was determined by performing titration test in 96-well plates and calculate approximate virus titer using GFP event/well data.
Compound plates were prepared by dispensing compounds dissolved in DMSO into wells of a 384 well Corning 3985 polystyrene flat clear bottom optical imaging microplate (202.5 nL/well) using an ECHO acoustic dispenser. Each compound was tested in 10-point serial 3-fold dilution (typical final concentrations: 40,300 nM-2 nM). […] Continuous culture of VERO cells was maintained in complete culture media (OptiMEM supplemented with 2 mM GlutaMAX™ and 100 U/ml Penicillin-Streptomycin). To set up the assay, VERO cells were trypsinized with 0.25% Trypsin-EDTA until cells were dislodged, then cells were re-suspended with 1 mL FBS. Cells were spun down at 300 g for 5 minutes and cells were washed twice with culture media and counted using default parameters on ViCell. Cells were then diluted to 100,000 cells/mL (5,000 cells/50 μL) in complete culture media+TrypLE Select (80 μL/mL). hMPV-GFP virus was added to cells at 125,000 pfu/mL (MOI=1.25) and were mixed by gentle inversion. 10 μL/well of 100% DMSO was dispensed to CellTiter-Glo (CTG) assay Max_E controls wells. Cells were dispensed at 50 μL/well using Bravo and 50 μL filtered tips into compound plates. Plates were covered with MicroClime lids and loaded with 7.5 mL of assay media to minimize evaporation. Plates were lightly shaken for 10 minutes at room temperature and then incubated at 37° C. and 5% CO2 for 48 hrs. Following incubation, distinct GFP-expressing cells were counted using an Acumen imaging system with appropriate settings. A same-well CTG assay was performed by adding 10 μL/well reconstituted CellTiter-Glo reagent (Promega G7573) and plates were read on PerkinElmer Envision according to manufacturer's instructions. Raw data were loaded and analyzed in ActivityBase. Antiviral IC50 and cytotoxicity CC50 values were determined using a 4 parameter logistic fit based on the Levenberg-Marquardt algorithm. Model: 205-4 Parameter Logistic. • References: Wen Z, Citron M, Bett A J, Espeseth A S, Vora K A, Zhang L, DiStefano D J. Development and application of a higher throughput RSV plaque assay by immunofluorescent imaging. J Virol Methods. 2019 January; 263:88-95. doi: 10.1016/j.jviromet.2018.10.022. Epub 2018 Oct. 28. PMD: 30381239. • Biacchesi S, Murphy B R, Collins P L, Buchholz U J. Frequent frameshift and point mutations in the SH gene of human metapneumovirus passaged in vitro. J Virol. 2007 June; 81(11):6057-67. doi: 10.1128/JVL.00128-07. Epub 2007 Mar. 21. PMID: 17376897; PMCID: MC 1900297. Assay Data

In test [2] the test system is RSV-A2-GFP virus. Put plainly: microbe, parasite or virus in culture. The format is cell-based, Human Respiratory Syncytial Virus. The method, then:
To set up the assay, ARF vials were thawed in a 37° C. water bath and a control compound was resuspended in assay media DMEM (Dulbecco's Modified Eagle Medium) containing 2% FBS, 100 U/ml Penicillin-Streptomycin.
GFP sequence was derived from pJTI™ R4 Dest CMV N-EmGFP pA Vector (Invitrogen) and was cloned into the intergenic sequence between wild-type RSV-A2 P and M genes using standard recombineering techniques. Recombinant RSV-A2-GFP was propagated in Hep2 cells (human cells contain HeLa marker chromosomes and were derived via HeLa contamination, ATCC CCL-23) with a Multiplicity of Infection (MOI) of 0.1. Virus was harvested 3 days after infection by collecting all culture material and then freeze-thawing the mixture for 5 min. Working virus stocks were generated by thawing frozen viral cultures in 37° C. water bath, which were centrifuged at 218 g for 15 min at 4° C. 1/10 of 10×SPG (Biological Industries 06-3061-01-5A) were added and then mixed. The supernatant was aliquoted, frozen in liquid nitrogen, and then transferred to a −80° C. freezer for storage. Virus titer was determined by automated plaque assay in HEp-2 cells following methods described previously (Wen Z. et al.; 2019).
Calu-1 cells were purchased from ATCC (Cat #HTB-54) and were expanded in growth media (DMEM containing 10% FBS, 100 U/ml Penicillin-Streptomycin). To make ARF, cell culture media was removed and discarded and the cell layer was briefly rinsed with PBS to remove serum. 2.5 mL of TrypLE Express solution were added and cells incubated until dislodged, to which growth media was added and the cells were resuspended by gentle pipetting. Cells were counted for concentration and viability as determined by ViCell. Cells were centrifuged at RT, 300 g for 5 minutes to pellet cells. The supernatant was gently aspirated and the pellet was flicked to loosen cells. Cells were resuspended in an appropriate volume of freezing medium (DMEM containing 10% DMSO, 10% FBS, 100 U/ml Penicillin-Streptomycin) to achieve a concentration of 5×10^6 cells/mL. 1 mL aliquots of the cell suspension were transferred to freezing vials. The vials were put into an upright container in a −80° C. freezer overnight before transferring vials to liquid nitrogen for storage.
Assay ready freezedown (ARF, generation described separately) Calu-1 cells (ATCC HTB-54) were used. Compound plates were prepared by dispensing compounds dissolved in DMSO into the wells of a 384 well Corning® 3985 plate with an ECHO acoustic dispenser and compounds were tested in 10-point serial 3-fold dilution. […] To set up the assay, ARF vial(s) were thawed in a 37° C. water bath and were then resuspended into assay media (DMEM containing 2% FBS, 100 U/ml Penicillin-Streptomycin). Cells were counted using default parameters on ViCell and diluted to 20,000 cells/mL in assay media. RSV-A2-GFP virus was added to cells at 24,000 pfu/ml (MOI=1.2) and mixed by gentle inversion. 10 μL/well of 100% DMSO was dispensed as CellTiter-Glo (CTG) assay Max_E controls wells. The cells were dispensed at 50 μL/well using Bravo with 50 μL filtered tips into compound plates. Plates were covered with MicroClime lids, loaded with 7.5 mL of assay media to minimize evaporation, and were incubated at 37° C. and 5% CO2 for 96 hrs. Following incubation, distinct, GFP-expressing cells were counted using an Acumen imaging system with appropriate settings. A same-well CTG assay was performed by adding 10 μL/well reconstituted CellTiter-Glo reagent (Promega G7573) and plates were read on PerkinElmer Envision according to manufacturer's instructions. Raw data were loaded and analyzed in ActivityBase. Antiviral IC50 and cytotoxicity CC50 values were determined using a 4 parameter logistic fit based on the Levenberg-Marquardt algorithm. Model: 205-4 Parameter Logistic.

Setting [3] is: VERO cells infected with hMPV-GFP, 48 hrs, GFP-expressing cells counted, read-out: hMPV EC50.
Setting [4] is: Calu-1 cells infected with RSV-A2-GFP, 96 hrs, GFP-expressing cells counted, read-out: RSV EC50.
Setting [5] is: human metapneumovirus, Vero, 48 h, read-out: hMPV EC50, VERO cells infected with hMPV-GFP, 48 hrs, GFP-expressing cells counted.
Setting [6] is: human respiratory syncytial virus, Calu-1, 96 h, read-out: RSV EC50, Calu-1 cells infected with RSV-A2-GFP, 96 hrs, GFP-expressing cells counted.

With `CC1(C)CCN(c2cc(C(C)(C)N)cc(O[C@H]3[C@@H]4CN(C(=O)c5cn(-c6ncccn6)nc5C(F)F)C[C@@H]43)n2)CC1` [Example 101, ((1R,5S,6s)-6-((4-(2-aminopropan-2-yl)-6-(4,4-dimethylpiperidin-1-yl)pyridin-2-yl)oxy)-3-azabicyclo[3.1.0]hexan-3-yl)(3-(difluoromethyl)-1-(pyrimidin-2-yl)-1H-pyrazol-4-yl)methanone], the values for the EC50 in test [1] (setting [3]) and in test [2] (setting [4]) were greater than 100 nM and less than 10 nM, respectively.

For the compound `Cc1nn(-c2ncccn2)cc1C(=O)N1C[C@@H]2[C@H](C1)[C@H]2Oc1cc(C(C)(C)N)cc(-c2ccc(F)cc2)n1` [Example 61, ((1R,5S,6s)-6-((4-(2-aminopropan-2-yl)-6-(4-fluorophenyl)pyridin-2-yl)oxy)-3-azabicyclo[3.1.0]hexan-3-yl)(3-methyl-1-(pyrimidin-2-yl)-1H-pyrazol-4-yl)methanone], the EC50 in test [1] (setting [5]) is greater than 100 nM; in test [2] (setting [6]), less than 10 nM.

`CCc1nn(-c2ncccn2)cc1C(=O)N1C[C@@H]2[C@H](C1)[C@H]2Oc1cc(C(C)(C)N)cc(N2CCC(C)(C)CC2)n1` [Example 124, ((1R,5S,6s)-6-((4-(2-aminopropan-2-yl)-6-(4,4-dimethylpiperidin-1-yl)pyridin-2-yl)oxy)-3-azabicyclo[3.1.0]hexan-3-yl)(3-ethyl-1-(pyrimidin-2-yl)-1H-pyrazol-4-yl)methanone]: the EC50 in test [1] (setting [3]) was greater than 100 nM; in test [2] (setting [4]) it was less than 10 nM.

As to `Cc1nc(-c2ncccn2)sc1C(=O)N1C[C@@H]2[C@H](C1)[C@H]2Oc1cc(C(C)(N)CO)cc(-c2ccc(F)cc2)n1` (single isomer, unassigned; enantiomer 1) [Example 113A], the EC50 in test [1] (setting [5]) is greater than 100 nM; in test [2] (setting [6]), less than 10 nM.

Regarding `Cc1nc(-c2ncccn2)sc1C(=O)N1C[C@@H]2[C@H](C1)[C@H]2Oc1cc(C(C)(C)N)cc(-c2cccc(F)c2)n1` [Example 16, ((1R,5S,6s)-6-((4-(2-aminopropan-2-yl)-6-(3-fluorophenyl)pyridin-2-yl)oxy)-3-azabicyclo[3.1.0]hexan-3-yl)(4-methyl-2-(pyrimidin-2-yl)thiazol-5-yl)methanone], the values for the concentration giving a half-maximal response (EC50) in test [1] (setting [3]) and in test [2] (setting [4]) were 10 to 100 nM and less than 10 nM, respectively.

For the compound `Cc1nn(-c2ncccn2)cc1C(=O)N1C[C@H]2[C@H](Oc3cc(C(C)(C)N)cc(-c4ccc(F)c(F)c4)n3)[C@@]2(C)C1` (single isomer, unassigned; enantiomer 1) [Example 106A], the EC50 is greater than 100 nM in test [1] (read-out: hMPV EC50, VERO cells infected with hMPV-GFP, 48 hrs, GFP-expressing cells counted) and less than 10 nM in test [2] (setting [6]).

Consider `Cc1nc(-c2ncccn2)sc1C(=O)N1C[C@@H]2[C@H](C1)[C@H]2Oc1cc(C(C)(C)N)cc(-c2ccc(C(F)(F)F)c(F)c2F)n1` [Example 31, ((1R,5S,6s)-6-((4-(2-aminopropan-2-yl)-6-(2,3-difluoro-4-(trifluoromethyl)phenyl)pyridin-2-yl)oxy)-3-azabicyclo[3.1.0]hexan-3-yl)(4-methyl-2-(pyrimidin-2-yl)thiazol-5-yl)methanone], for which the EC50 was 10 to 100 nM in test [1] (setting [3]) and less than 10 nM in test [2] (setting [4]).

For the compound `Cn1nc(-c2cccc(F)n2)cc1C(=O)N1C[C@@H]2[C@H](C1)[C@H]2Oc1cc(C(C)(C)N)cc(-c2ccc(F)cc2)n1` [Example 50, ((1R,5S,6s)-6-((4-(2-aminopropan-2-yl)-6-(4-fluorophenyl)pyridin-2-yl)oxy)-3-azabicyclo[3.1.0]hexan-3-yl)(3-(6-fluoropyridin-2-yl)-1-methyl-1H-pyrazol-5-yl)methanone], the figures for the EC50 in test [1] (setting [5]) and in test [2] (setting [6]) were 10 to 100 nM and less than 10 nM, respectively.

On to `Cc1nn(-c2ncccn2)cc1C(=O)N1C[C@@H]2[C@H](C1)[C@H]2Oc1cc(C(C)(C)N)cc(-c2ccc(Cl)c(F)c2)n1` [Example 84, ((1R,5S,6s)-6-((4-(2-aminopropan-2-yl)-6-(4-chloro-3-fluorophenyl)pyridin-2-yl)oxy)-3-azabicyclo[3.1.0]hexan-3-yl)(3-methyl-1-(pyrimidin-2-yl)-1H-pyrazol-4-yl)methanone], for which the EC50 in test [1] (setting [3]) was greater than 100 nM; in test [2] (setting [4]) it was less than 10 nM.

For the compound `Cc1nn(-c2ncccn2)cc1C(=O)N1C[C@@H]2[C@H](C1)[C@H]2Oc1cc(C(C)(C)N)cc(N2CCC(C(F)(F)F)CC2)n1` [Example 102, ((1R,5S,6s)-6-((4-(2-aminopropan-2-yl)-6-(4-(trifluoromethyl)piperidin-1-yl)pyridin-2-yl)oxy)-3-azabicyclo[3.1.0]hexan-3-yl)(3-methyl-1-(pyrimidin-2-yl)-1H-pyrazol-4-yl)methanone], the concentration for a half-maximal effect (EC50) in test [1] (setting [3]) was greater than 100 nM; in test [2] (setting [4]) it was less than 10 nM.

With `CCc1nn(-c2ncccn2)cc1C(=O)N1C[C@@H]2[C@H](C1)[C@H]2Oc1cc(C(C)(C)N)cc(-c2ccc(F)cc2)n1` [Example 64, ((1R,5S,6s)-6-((4-(2-aminopropan-2-yl)-6-(4-fluorophenyl)pyridin-2-yl)oxy)-3-azabicyclo[3.1.0]hexan-3-yl)(3-ethyl-1-(pyrimidin-2-yl)-1H-pyrazol-4-yl)methanone], the half-maximal effective concentration (EC50) is greater than 100 nM in test [1] (setting [3]) and less than 10 nM in test [2] (setting [4]).

The values above are taken from US12643882B2, “Inhibitors of human respiratory syncytial virus and metapneumovirus” (priority 2022, dated 2026).
